# US20110110911A1 (priority 2009, published 2011)
# Tested on: DU-145 cells
# Type: cell-based, human
compound,measurement,value
C=C1[C@@H](C)[C@H]2[C@H](Cc3ccccc3)NC(=O)[C@]23[C@H](OC(C)=O)/C=C/[C@@](C)(O)C(=O)[C@@H](C)C/C=C/[C@H]3[C@@H]1O [Cytochalasin-D],"Relative Wound Density at 24 Hours, Mean",3.3 ± 0.2
same,"Relative Wound Density at 24 Hours, Percent Relative to Media",4%
same,effect on cell migration (in words),did not migrate
